Like-named read-outs stand apart in the source and are kept apart here.
What was measured:
[1] = Pharmacokinetics of artesunate (AS) in plasma after multiple intravenous doses, compartmental analysis (Phase 1b); assay type: in vivo, human; details: for Total AUCD1-D3: days 1-3; for half-life / AUC(0-inf) / Cmax / clearance / MRT / AUC: iv; for clearance: read-out: CL_obs; for AUC: 2-8 mg/kg iv, read-out: Mean AUC of AS, range over doses
Description: The study was a double blind, ascending multiple doses, alternating group, safety, tolerance, and PK study. […] When the injection was completed, the study nurse recorded tolerance of injection to include both inspection of site and subjects’ responses. Subjects were provided a light lunch at approximately 4 hours after dosing. Normal activities, excluding strenuous exercise, were permitted four hours after dosing. […] During the multiple-dose period, samples were collected immediately before morning dose on days 2 and 3 for additional trough values. All the samples were stored at −80 °C until shipment and were then shipped to a bio-analytical GLP laboratory, Midwest Research Institute (MRI), in Kansas City, MO, USA. The human use protocol numbers for the Phase 1 trial are: USUHS #G183RW; WRIAR #1128; and HSRRB #A-13276.
The analytes were extracted from human plasma with ethyl acetate. […] The reconstituted extracts were analysed on a Micromass Quattro II Mass Spectrometer in the positive ion electrospray ionization (+ESI) mode. […] This method employed a Varian Pursuit C18 column (150 x 2.0 mm, 5-μm particle size) and a gradient elution with the following mobile phases: A: 10 mM ammonium acetate in water with 1% formic acid and B: 10 mM ammonium acetate in acetonitrile with 1% formic acid, for the chromatographic separation.
Calibration standards and QC samples were analysed to evaluate the performance of the assay.
Compartmental (model-dependent) and non-compartment (model-independent) PK analysis are common methods to determine PK parameters, which are acceptable by FDA [21]. In order to compare only the clinically relevant concentrations, the compartmental PK analysis was selected for PK analysis in this study and based on a short-term (2 min) intravenous infusion in accordance with a previous PK evaluation. […] The input of the drug was assumed to follow zero-order kinetics, and elimination from the central compartment occurred with first-order kinetics. Compartmental analysis of concentration-time data for parent drug was performed using the WinNonlin software with an intravenous infusion program. The first-order method with logarithmic transformation of all drug-concentration data was used throughout.
The drug plasma concentrations at the end of an intravenous (IV) infusion (Cmax) were calculated from the corresponding model equations (IV-infusion model, WinNonlin) at the respective time points. The AUC(0-t) (where t = the time point for the last sample on the PK profile in which quantifiable drug was detected) was estimated using linear or linear/log trapezoidal calculations. […] A drug accumulation index was estimated from the AUC values on day 3 (last multiple dose administration) divided by the AUC on day 1 (first multiple dose administration).

[2] = system: severe falciparum malaria; details: AQUAMAT, cited from earlier work
[3] = Tolerability and safety of multiple intravenous AS doses in healthy volunteers; assay type: in vivo, human
Description: The study was a double blind, ascending multiple doses, alternating group, safety, tolerance, and PK study. Injectable AS daily for three days was administered intravenously to three groups of the subjects using alternating doses of 2, 4, and 8 mg. All eight subjects in each dose group received either the AS (six subjects) or placebo (two subjects) in a pre-randomized manner. The study physician, after verifying the code with a study nurse, would then inject either the drug or placebo into an injection port at the pre-measured dose over about 2 min as a short-term intravenous infusion; the study nurse recorded the time of study drug reconstitution, infusion start and completion of injection. When the injection was completed, the study nurse recorded tolerance of injection to include both inspection of site and subjects’ responses. Subjects were provided a light lunch at approximately 4 hours after dosing. Normal activities, excluding strenuous exercise, were permitted four hours after dosing. […] During the multiple-dose period, samples were collected immediately before morning dose on days 2 and 3 for additional trough values. All the samples were stored at −80 °C until shipment and were then shipped to a bio-analytical GLP laboratory, Midwest Research Institute (MRI), in Kansas City, MO, USA. The human use protocol numbers for the Phase 1 trial are: USUHS #G183RW; WRIAR #1128; and HSRRB #A-13276.

parasitaemia = details: cited from earlier work
[4] = human, in vivo, cited from earlier work
[5] = human, in vivo, po; cited from earlier work
[6] = human, plasma, 2 mg/kg, Day 1, AS 2 mg/kg iv daily for 3 days, 2 min infusion, mean (CV%), n = 6, CA
[7] = human, plasma, 2 mg/kg, Day 2, AS 2 mg/kg iv daily for 3 days, 2 min infusion, mean (CV%), n = 6, CA
[8] = human, plasma, 2 mg/kg, Day 3, AS 2 mg/kg iv daily for 3 days, 2 min infusion, mean (CV%), n = 6, CA
[9] = human, plasma, 4 mg/kg, Day 1, AS 4 mg/kg iv daily for 3 days, 2 min infusion, mean (CV%), n = 6, CA
[10] = human, plasma, 4 mg/kg, Day 2, AS 4 mg/kg iv daily for 3 days, 2 min infusion, mean (CV%), n = 6, CA
[11] = human, plasma, 4 mg/kg, Day 3, AS 4 mg/kg iv daily for 3 days, 2 min infusion, mean (CV%), n = 6, CA
[12] = human, plasma, 8 mg/kg, Day 1, AS 8 mg/kg iv daily for 3 days, 2 min infusion, mean (CV%), n = 6, CA
[13] = human, plasma, 8 mg/kg, Day 2, AS 8 mg/kg iv daily for 3 days, 2 min infusion, mean (CV%), n = 6, CA
[14] = human, plasma, 8 mg/kg, Day 3, AS 8 mg/kg iv daily for 3 days, 2 min infusion, mean (CV%), n = 6, CA
[15] = 2, 4, 8 mg/kg iv daily for three days

C[C@H]1[C@H](OC(=O)CCC(=O)O)O[C@@H]2O[C@@]3(C)CC[C@H]4[C@H](C)CC[C@@H]1[C@@]24OO3 [AS, 4-(10’dihydro-artemisinin-oxymethyl) succinate]
Tmax ([1]; Day 1, AS 2 mg/kg iv daily for 3 days, 2 min infusion, n = 6, CA): 2 min
Tmax ([1]; Day 1, AS 4 mg/kg iv daily for 3 days, 2 min infusion, n = 6, CA): 2 min
Tmax ([1]; Day 1, AS 8 mg/kg iv daily for 3 days, 2 min infusion, n = 6, CA): 2 min
Tmax ([1]; Day 3, AS 2 mg/kg iv daily for 3 days, 2 min infusion, n = 6, CA): 2 min
Tmax ([1]; Day 3, AS 4 mg/kg iv daily for 3 days, 2 min infusion, n = 6, CA): 2 min
Tmax ([1]; Day 3, AS 8 mg/kg iv daily for 3 days, 2 min infusion, n = 6, CA): 2 min
peak concentrations of AS, range ([1]; all days, 2, 4, 8 mg/kg iv doses): 16,487-74,588 ng/ml
Total AUCD1-D3 ([1]; AS 2 mg/kg iv daily for 3 days, mean (CV%), n = 6): 4731 (40) ng·h/ml
Total AUCD1-D3 ([1]; AS 4 mg/kg iv daily for 3 days, mean (CV%), n = 6): 10787 (17) ng·h/ml
Total AUCD1-D3 ([1]; AS 8 mg/kg iv daily for 3 days, mean (CV%), n = 6): 18606 (45) ng·h/ml
half-life ([1]; human, in vivo, 2 mg/kg, Day 1, AS 2 mg/kg iv daily for 3 days, 2 min infusion, mean (CV%), n = 6, CA, read-out: t1/2 elimination (converted)): 9.6 min
half-life ([1]; human, in vivo, 2 mg/kg, Day 2, AS 2 mg/kg iv daily for 3 days, 2 min infusion, mean (CV%), n = 6, CA, read-out: t1/2 elimination (converted)): 11.4 min
half-life ([1]; human, in vivo, 2 mg/kg, Day 3, AS 2 mg/kg iv daily for 3 days, 2 min infusion, mean (CV%), n = 6, CA, read-out: t1/2 elimination (converted)): 9 min
half-life ([1]; human, in vivo, 4 mg/kg, Day 1, AS 4 mg/kg iv daily for 3 days, 2 min infusion, mean (CV%), n = 6, CA, read-out: t1/2 elimination (converted)): 12.6 min
half-life ([1]; human, in vivo, 4 mg/kg, Day 2, AS 4 mg/kg iv daily for 3 days, 2 min infusion, mean (CV%), n = 6, CA, read-out: t1/2 elimination (converted)): 13.8 min
half-life ([1]; human, in vivo, 4 mg/kg, Day 3, AS 4 mg/kg iv daily for 3 days, 2 min infusion, mean (CV%), n = 6, CA, read-out: t1/2 elimination (converted)): 12 min
half-life ([1]; human, in vivo, 8 mg/kg, Day 1, AS 8 mg/kg iv daily for 3 days, 2 min infusion, mean (CV%), n = 6, CA, read-out: t1/2 elimination (converted)): 12 min
half-life ([1]; human, in vivo, 8 mg/kg, Day 2, AS 8 mg/kg iv daily for 3 days, 2 min infusion, mean (CV%), n = 6, CA, read-out: t1/2 elimination (converted)): 11.4 min
half-life ([1]; human, in vivo, 8 mg/kg, Day 3, AS 8 mg/kg iv daily for 3 days, 2 min infusion, mean (CV%), n = 6, CA, read-out: t1/2 elimination (converted)): 12 min
AUC(0-inf) [1, 6]: 2050 ng·h/mL
Cmax [1, 6]: 28400 ng/mL
clearance [1, 6]: 21.2 mL/min/kg
MRT ([1]; human, plasma, 2 mg/kg, Day 1, AS 2 mg/kg iv daily for 3 days, 2 min infusion, mean (CV%), n = 6, CA, read-out: MRT): 4.8 min
AUC(0-inf) [1, 7]: 1410 ng·h/mL
Cmax [1, 7]: 17900 ng/mL
clearance [1, 7]: 29.5 mL/min/kg
MRT ([1]; human, plasma, 2 mg/kg, Day 2, AS 2 mg/kg iv daily for 3 days, 2 min infusion, mean (CV%), n = 6, CA, read-out: MRT): 4.8 min
AUC(0-inf) [1, 8]: 1270 ng·h/mL
Cmax [1, 8]: 16500 ng/mL
clearance [1, 8]: 27.9 mL/min/kg
MRT ([1]; human, plasma, 2 mg/kg, Day 3, AS 2 mg/kg iv daily for 3 days, 2 min infusion, mean (CV%), n = 6, CA, read-out: MRT): 4.2 min
AUC(0-inf) [1, 9]: 4640 ng·h/mL
Cmax [1, 9]: 40600 ng/mL
clearance [1, 9]: 19.4 mL/min/kg
MRT ([1]; human, plasma, 4 mg/kg, Day 1, AS 4 mg/kg iv daily for 3 days, 2 min infusion, mean (CV%), n = 6, CA, read-out: MRT): 4.8 min
AUC(0-inf) [1, 10]: 2630 ng·h/mL
Cmax [1, 10]: 34400 ng/mL
clearance [1, 10]: 27.3 mL/min/kg
MRT ([1]; human, plasma, 4 mg/kg, Day 2, AS 4 mg/kg iv daily for 3 days, 2 min infusion, mean (CV%), n = 6, CA, read-out: MRT): 4.8 min
AUC(0-inf) [1, 11]: 3520 ng·h/mL
Cmax [1, 11]: 51200 ng/mL
clearance [1, 11]: 23 mL/min/kg
MRT ([1]; human, plasma, 4 mg/kg, Day 3, AS 4 mg/kg iv daily for 3 days, 2 min infusion, mean (CV%), n = 6, CA, read-out: MRT): 4.8 min
AUC(0-inf) [1, 12]: 6020 ng·h/mL
Cmax [1, 12]: 63700 ng/mL
clearance [1, 12]: 27.9 mL/min/kg
MRT ([1]; human, plasma, 8 mg/kg, Day 1, AS 8 mg/kg iv daily for 3 days, 2 min infusion, mean (CV%), n = 6, CA, read-out: MRT): 6 min
AUC(0-inf) [1, 13]: 6670 ng·h/mL
Cmax [1, 13]: 74600 ng/mL
clearance [1, 13]: 26.7 mL/min/kg
MRT ([1]; human, plasma, 8 mg/kg, Day 2, AS 8 mg/kg iv daily for 3 days, 2 min infusion, mean (CV%), n = 6, CA, read-out: MRT): 4.8 min
AUC(0-inf) [1, 14]: 5920 ng·h/mL
Cmax [1, 14]: 67600 ng/mL
clearance [1, 14]: 28.9 mL/min/kg
MRT ([1]; human, plasma, 8 mg/kg, Day 3, AS 8 mg/kg iv daily for 3 days, 2 min infusion, mean (CV%), n = 6, CA, read-out: MRT): 5.4 min
MRT ([1]; human, plasma, 8 mg/kg, range during three days of treatment, 2, 4, 8 mg/kg iv doses, read-out: mean residence time of AS, range): 4.2 to 4.8 min
half-life ([1]; human, plasma, 8 mg/kg, range of means over three days and 2, 4, 8 mg/kg iv doses, read-out: mean elimination half-life of AS, range): 9 to 13.8 min
AUC ([1]; human, plasma, day 1): 2050 to 6020 ng·h/mL
AUC ([1]; human, plasma, day 3): 1270 to 5920 ng·h/mL
Tmax ([1]; human, plasma, Day 2, AS 2 mg/kg iv daily for 3 days, 2 min infusion, n = 6, CA, read-out: Tmax (converted)): 2 min
Tmax ([1]; human, plasma, Day 2, AS 4 mg/kg iv daily for 3 days, 2 min infusion, n = 6, CA, read-out: Tmax (converted)): 2 min
Tmax ([1]; human, plasma, Day 2, AS 8 mg/kg iv daily for 3 days, 2 min infusion, n = 6, CA, read-out: Tmax (converted)): 2 min
mortality rate ([2]; severe malaria patients, intravenous treatment): 8.5%
reduction of mortality versus quinine [2]: 22.5%
dose dependence of adverse events [3, 15]: no dose-dependent increases in any adverse events
haemodynamic or ECG effects [3, 15]: No deleterious haemodynamic or ECG effects were seen
other laboratory abnormalities [3, 15]: no other clinically significant laboratory abnormalities detected
duration of transient sensation of altered or unusual taste ([3]; associated with higher doses of AS, all cases): less than 30 minutes
tolerability ([3]; daily iv for three days, doses up to 8 mg/kg, healthy volunteers): well tolerated and no serious side effects were observed and safe
reticulocyte count ([3]; peaked four days after dosing, returned to normal by study day 7 in most cases, day 10 in all): dose-related decrease
mean time for clearance of half the parasitaemia (PC50) (parasitaemia; human, in vivo): 3.18 h
duration of the lag phase of the parasitaemia curve (parasitaemia; intravenous AS, previous clinical trials): 1.92 h
lag time of the parasitaemia curve (parasitaemia; oral AS, previous clinical trials): 2.81 h
mean peak level (Cmax) ([4]; iv): 11,343 ng/ml
Cmax ([4]; po): 1052 ng/mL
Cmax and AUC on the last dose day as compared to the first day [5]: about one-third to one-seventh
